According to ChEMBL document CHEMBL4706576, “Tricyclic heterocycles display diverse sensitivity to the A147T TSPO polymorphism” (Eur J Med Chem, 2020):

How the values were obtained:
Homo sapiens = organism: Homo sapiens; assay: Selectivity index, ratio of Ki for TSPO A147T mutant (unknown origin) to Ki for wild type TSPO (unknown origin)
Translocator protein = Translocator protein (Homo sapiens, UniProt P30536); assay: Displacement of [3H]-PK11195 from wild type TSPO (unknown origin) expressed in human HEK293T cells assessed as inhibitory constant incubated for 90 mins by microbeta scintillation counting method; assay type: cell-based
Sequence of Translocator protein (P30536 whole entry): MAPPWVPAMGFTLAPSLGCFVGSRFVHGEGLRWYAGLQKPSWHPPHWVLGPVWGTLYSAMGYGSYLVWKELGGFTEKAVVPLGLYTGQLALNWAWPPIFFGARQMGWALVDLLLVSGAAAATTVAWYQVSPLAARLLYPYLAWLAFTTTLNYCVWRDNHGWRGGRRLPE

Compound | Ratio Ki (Homo sapiens) | Ki (Translocator protein)
CCN(CC)C(=O)Cn1c2ccccc2c2ccccc21 | 5.9 | –
CN(C)C(=O)CN1c2ccccc2NC(=O)c2ccccc21 | – | > 10000 nM
CCN(CC)C(=O)CN1Cc2cnn(C)c2Nc2ccccc21 | 4.6 | 493 nM
CN(Cc1ccccc1)C(=O)CN1c2ccccc2NC(=O)c2ccccc21 | 2.1 | 76.8 nM
COc1ccc(-c2nn3c(C)cc(C)nc3c2CC(=O)N(C)Cc2ccccc2)cc1 | 2.9 | 9.3 nM
CN(Cc1ccccc1)C(=O)CN1Cc2cnn(C)c2Nc2ccccc21 | 4.8 | 41.3 nM
CCN(Cc1ccccc1)C(=O)CN1c2ccccc2NC(=O)c2ccccc21 | 6.2 | 15.8 nM
CN(C)C(=O)CN1Cc2cnn(C)c2Nc2ccccc21 | – | > 10000 nM
CN(Cc1ccccc1)C(=O)Cn1c2ccccc2c2ccccc21 | 2.5 | –
CCN(Cc1ccccc1)C(=O)Cc1c(-c2ccc(OC)cc2)nn2c(C)cc(C)nc12 | 13 | 6.2 nM
CCN(Cc1ccccc1)C(=O)Cn1c2ccccc2c2ccccc21 | 5 | –
COc1ccc(-c2nn3c(C)cc(C)nc3c2CC(=O)N(C)C)cc1 | 1.7 | 338 nM
CCN(CC)C(=O)CN1c2ccccc2NC(=O)c2ccccc21 | 11.8 | 200 nM
CCN(Cc1ccccc1)C(=O)CN1Cc2cnn(C)c2Nc2ccccc21 | 5.5 | 41.3 nM
